# Reference: patent US20220047530A1, “USE OF HORDENINE IN PREPARING DRUG FOR TREATING HYPOPHYSOMA” (Wuhan Third Hospital, priority 2019, published 2022)
# Entries after “also recorded” stand apart in the source; their conditions may differ.
# Tests used:
# [1] = system: pituitary prolactinoma; conditions: patients; cited from earlier work
# [2] = system: prolactin (PRL); experiment: ELISA of prolactin content in serum of rats with prolactinoma and adrenocorticotrophic hormone adenoma; format: in vivo, F344 rats (Rattus norvegicus); conditions: oral gavage 40, 20, 10 mg/kg once a day for 30 days; vs model group
# Excerpt: (§1) 70 rats of the prolactinoma and adrenocorticotrophic hormone adenoma model as established in Step 1.1 “Establishment of Rattus norvegicus pituitary tumor model” and normal rats of the control group are used as samples.
# (§2) The 70 F344 rats are randomly divided into the normal group, operation group, model group, positive drug group (bromocriptine positive drug group), high-dose hordenine group, medium-dose hordenine group, and low-dose hordenine group, […]. Except rats in the normal group and the operation group, rats in the other groups are all made into rats with prolactinoma and adrenocorticotrophic hormone adenoma.
# (§3) Rats in the positive drug group are given an aqueous bromocriptine solution by gavage at a dose of 0.45 mg/kg. Rats in the high-, medium- and low-dose groups of an aqueous solution of hordenine are given an aqueous solution of hordenine by oral gavage at a dose of 40 mg/kg, 20 mg/kg, and 10 mg/kg, respectively. Rats in the normal group and the model group are given the same dose of distilled water. The administration is performed once a day for 30 days, and during this period of time, the rats are weighed every five days and the changes in body weight are recorded. […]
# (§4) The contents of PRL and IL-β in the serum of rats in each group are determined by ELISA according to the procedures in the ELISA kit instructions.
# [3] = system: IL-β; experiment: ELISA of IL-β content in serum of rats with prolactinoma and adrenocorticotrophic hormone adenoma; format: in vivo, F344 rats (Rattus norvegicus); conditions: oral gavage 40, 20, 10 mg/kg once a day for 30 days; vs model group
# Excerpt: as §1, §2, §3, §4
# [4] = system: TLR4/NF-κB/MAPK pathway; experiment: Western blot of pituitary protein expression in rats with prolactinoma and adrenocorticotrophic hormone adenoma; format: in vivo, F344 rats (Rattus norvegicus); conditions: once a day for 30 days by gavage; vs model group
# Excerpt: as §1, §2
# Rats in the positive drug group are given an aqueous bromocriptine solution by gavage at a dose of 0.45 mg/kg. Rats in the high-, medium- and low-dose groups of an aqueous solution of hordenine are given an aqueous solution of hordenine by oral gavage at a dose of 40 mg/kg, 20 mg/kg, and 10 mg/kg, respectively. Rats in the normal group and the model group are given the same dose of distilled water. The administration is performed once a day for 30 days, and during this period of time, the rats are weighed every five days and the changes in body weight are recorded.
# Tissue extraction: The animals in each group are anesthetized, and the pituitary glands are removed as described in Section 2.2.2 of Part I, which are kept at −80° C. for later use.
# The protein expression of TLR4/NF-κB/MAPK pathway in rats in the treatment groups after the administration of hordenine is determined by Western blotting detection. The effect of hordenine on the expression of various proteins in the pituitary glands of rats with prolactinoma and adrenocorticotrophic hormone adenoma as determined by Western blot detection on is shown in FIG. 16.
# [5] = system: SD rats; experiment: Toxicity prediction (pre-experiment); format: in vivo; conditions: gavage 0.07 g/kg twice a day
# Excerpt: (§5) 5 SPF-grade SD rats are randomly selected for toxicity prediction. Another 30 SPF-grade SD rats are randomly selected, wherein half are males, and half are females. After the purchase of the animals, the animals are adaptively fed for one week. The rats are fasted at the night before the experiment (without stopping the provision of water). During the experiment, the animals are randomly divided into 3 groups, which are the control group, the low-dose hordenine treatment group (0.035 g/kg), and the high-dose hordenine treatment group (0.07 g/kg).
# 7 mg/ml of hordenine solution (the theoretical maximum solubility of hordenine is 7 mg/ml) is used for pre-experiment to observe the survival of rats. 5 SPF-grade SD rats are randomly selected, and hordenine is administered by gavage at the maximum dose of 0.07 g/kg, twice a day, with an interval of no less than 4 hours, 1 day of administration, and 7 days of observation. The poisoning, death, and amounts of food and water consumed by the rats are daily observed and recorded. For rats that die during the experiment, they are immediately dissected to find the cause of death. After the completion of the experiment, all dying rats will be dissected to remove the heart, liver, spleen, lung and kidney for visual observation, and pathological sections of each organ are made to roughly determine the target organ of toxicity.
# [6] = system: SD rats; experiment: Acute toxicity test (maximum dose method); format: in vivo; design: key to Inflammation score: 0: no or very little inflammation; 1: mild inflammation; 2: moderate inflammation; 3: severe inflammation; conditions: for ALB / ALP / ALT / AST / DBIL / TBA / TBIL / TP / γ-GT: serum
# Excerpt: The experimental animals are 40 SPF-grade SD rats, provided by the Experimental Animal Center of China Three Gorges University (SCXK (E)) 2017-0012), wherein half are males, and half are females, each with a body weight of 150 g; the animal number is: No. 42010200001245, and the experimental unit license number is: SYXK (E) 2014-0080.
# as §5
# If no rats die in the pre-experiment, according to the acute toxicity test method, the maximum dose method is used, and hordenine is administered by gavage at a high dose of 0.07 g/kg and a low dose of 0.035 g/kg, respectively. The control group is given the same volume of saline. The administration is carried out twice a day (with an interval of no less than 4 hours) for 7 days, and the rats are fasted for 3 to 4 hours after the administration. The animals' immediate reactions are recorded, and the rats' appearance, behavior, activity, spirit, appetite, fur, breathing, weight, and the like, are carefully observed continuously for 14 days. The poisoning, death, and amounts of food and water consumed by the rats are recorded daily to determine the LD0 (0% mortality), LD100 (100% mortality) and the r value between the corresponding dose groups, and determine the LD50 (half lethal dose) value. For mice that die during the experiment, they should be dissected immediately to find the cause of their death. After the completion of the experiment, all survived rats are anesthetized by intraperitoneal injection of urethane, and immediately dissected to remove the heart, liver, spleen, lung, and kidney, which are observed with naked eyes for disease. And pathological sections of each organ are made: The tissues are fixed with a solution of 4% paraformaldehyde, conventionally sampled, dehydrated, embedded in paraffin, made into a slice (4 μm thick), stained with HE staining method, observed with an optical microscope, and photographed to roughly determine the target organs of toxicity. The serum of all experimental rats is used for the determination of routine blood biochemical indexes.
# [7] = gavage 0.07 and 0.035 g/kg twice a day for 7 days
# [8] = low-dose, high-dose vs control, P>0.05
# [9] = high-dose group (0.07 g/kg), female
# [10] = high-dose group (0.07 g/kg), male
# [11] = low-dose group (0.035 g/kg), female
# [12] = low-dose group (0.035 g/kg), male
smiles,measurement,setting,value
CC(C)C[C@H]1C(=O)N2CCC[C@H]2[C@]2(O)O[C@](NC(=O)[C@@H]3C=C4c5cccc6[nH]c(Br)c(c56)C[C@H]4N(C)C3)(C(C)C)C(=O)N12 [bromocriptine],side effects,[1],mainly gastrointestinal reactions
"CN(C)CCc1ccc(O)cc1 [hordenine, 4-(2-dimethylaminoethyl)phenol]",expression of PRL in serum (ELISA),[2],significantly inhibit
same,expression of IL-β in serum (ELISA),[3],significantly inhibit
same,expression of ATCH in pituitary glands (Western blot),[4],significantly reduce
same,expression of MAPK12 in pituitary glands (Western blot),[4],significantly reduce; also recorded: significantly down-regulated
same,expression of NF-kB protein in pituitary glands,[4],significantly down-regulated
same,expression of PRL in pituitary glands (Western blot),[4],significantly reduce
same,expression of STAT3 protein in pituitary glands,[4],significantly down-regulated
same,expression of TLR4 in pituitary glands (Western blot),[4],significantly reduce; also recorded: significantly down-regulated
same,expression of TNF-α in pituitary glands (Western blot),[4],significantly reduce
same,expression of caspase-1 protein in pituitary glands,[4],significantly down-regulated
same,time to recovery of reduced activity after treatment,[5]; 1 day,about 2 hours
same,death of rats within 7 days,"[5]; 1 day of administration, 7 days of observation",no rats die
same,general clinical signs,"[5]; 1 day, 7 days of observation",no other adverse reactions
same,Inflammation score,"[6]; Heart, female, high-dose group",0
same,Inflammation score,"[6]; Heart, female, low-dose group",0
same,Inflammation score,"[6]; Heart, male, high-dose group",0
same,Inflammation score,"[6]; Heart, male, low-dose group",0
same,Inflammation score,"[6]; Kidney, female, high-dose group",0
same,Inflammation score,"[6]; Kidney, female, low-dose group",0
same,Inflammation score,"[6]; Kidney, male, high-dose group",1
same,Inflammation score,"[6]; Kidney, male, low-dose group",0
same,Inflammation score,"[6]; Liver, female, high-dose group",0
same,Inflammation score,"[6]; Liver, female, low-dose group",0
same,Inflammation score,"[6]; Liver, male, high-dose group",0
same,Inflammation score,"[6]; Liver, male, low-dose group",0
same,Inflammation score,"[6]; Lung, female, high-dose group",1
same,Inflammation score,"[6]; Lung, female, low-dose group",0
same,Inflammation score,"[6]; Lung, male, high-dose group",1
same,Inflammation score,"[6]; Lung, male, low-dose group",0
same,Inflammation score,"[6]; Spleen, female, high-dose group",1
same,Inflammation score,"[6]; Spleen, female, low-dose group",0
same,Inflammation score,"[6]; Spleen, male, high-dose group",1
same,Inflammation score,"[6]; Spleen, male, low-dose group",0
same,general clinical signs,[6]; [7],no other adverse reactions
same,time to recovery of reduced activity after treatment,[6]; [7],about 2 hours
same,death of rats,[6]; gavage 0.07 g/kg and 0.035 g/kg twice a day for 7 days,No rats die; also recorded: no Rattus norvegicus death
same,lethal dose,"[6]; gavage, twice a day for 7 days",greater than 0.14 g/kg
same,"inflammation in the liver, spleen, and kidneys (pathological slices and biochemical experiments)",[6]; high-dose group,slight inflammation
same,kidney pathology,[6]; high-dose group,topical renal tubule interstitial connective tissue of rats in the high-dose group is proliferated
same,liver pathology (hepatocytes),[6]; high-dose group,extensive severe edema
same,lung pathology,[6]; high-dose group,"proliferated alveolar epithelial cells, and the alveolar walls are thickened"
same,spleen pathology (white pulp),[6]; high-dose group,topical lymphocytes in the white pulp of the spleen tissue are reduced
same,"tissue inflammatory response in the spleen, lung, and kidney",[6]; high-dose group,mild inflammatory response
same,kidney pathology,[6]; low-dose group,no obvious abnormality
same,liver pathology (hepatocytes),[6]; low-dose group,extensive edema
same,lung pathology,[6]; low-dose group,a large number of proliferated alveolar epithelial cells
same,spleen pathology (white pulp),[6]; low-dose group,"A small amount of lymphocytes exhibit necrosis, apoptosis"
same,tissue inflammatory response,[6]; low-dose group,no inflammatory response
same,liver function indexes,[6]; [8],no significant influence
same,renal function (blood BUN and CREA),[6]; [8],no significant influence
same,body weight,[6]; one week after the treatment,physiological increase
same,ALB,[6]; [9],32.45 ± 1.61 g/L
same,ALP,[6]; [9],195.08 ± 92.02 U/L
same,ALT,[6]; [9],51.25 ± 4.84 U/L
same,AST,[6]; [9],141 ± 12.04 U/L
same,DBIL,[6]; [9],7.23 ± 1.72 µmol/L
same,TBA,[6]; [9],27.57 ± 12.2 µmol/L
same,TBIL,[6]; [9],13.4 ± 5.73 µmol/L
same,TP,[6]; [9],55.45 ± 2.31 g/L
same,γ-GT,[6]; [9],3.62 ± 1.97 U/L
same,ALB,[6]; [10],29.5 ± 1.05 g/L
same,ALP,[6]; [10],278.67 ± 38.64 U/L
same,ALT,[6]; [10],51.47 ± 6.19 U/L
same,AST,[6]; [10],147.02 ± 17.42 U/L
same,DBIL,[6]; [10],6.14 ± 0.86 µmol/L
same,TBA,[6]; [10],41.43 ± 10.19 µmol/L
same,TBIL,[6]; [10],10.08 ± 2.69 µmol/L
same,TP,[6]; [10],49.11 ± 2.17 g/L
same,γ-GT,[6]; [10],3.9 ± 2.10 U/L
same,ALB,[6]; [11],31.88 ± 1.02 g/L
same,ALP,[6]; [11],229.4 ± 70.39 U/L
same,ALT,[6]; [11],43.54 ± 3.84 U/L
same,AST,[6]; [11],146.92 ± 24.61 U/L
same,DBIL,[6]; [11],9.03 ± 5.05 µmol/L
same,TBA,[6]; [11],23.77 ± 6.9 µmol/L
same,TBIL,[6]; [11],11.67 ± 5.16 µmol/L
same,TP,[6]; [11],53.54 ± 1.24 g/L
same,γ-GT,[6]; [11],3.92 ± 1.78 U/L
same,ALB,[6]; [12],28.86 ± 0.55 g/L
same,ALP,[6]; [12],328.05 ± 53.25 U/L
same,ALT,[6]; [12],40.46 ± 5.55 U/L
same,AST,[6]; [12],116.65 ± 18.14 U/L
same,DBIL,[6]; [12],6.81 ± 2.83 µmol/L
same,TBA,[6]; [12],36.99 ± 10.95 µmol/L
same,TBIL,[6]; [12],10.64 ± 4.19 µmol/L
same,TP,[6]; [12],47.34 ± 1.99 g/L
same,γ-GT,[6]; [12],2.59 ± 1.84 U/L
same,"pathological sections: toxicity to liver, spleen, lung and kidney",[6]; treatment groups,slight toxicity
same,"physiological conditions, weight changes, behavioral activities vs control group",[6]; treatment groups,no significant differences
